Experimental data from article PMC10104807, “Modulation of tau tubulin kinases (TTBK1 and TTBK2) impacts ciliogenesis” (Scientific Reports, 2023).

Tests used:
Experiment in all cases: Eurofins enzymatic radiometric kinase assay
Format in all cases: biochemical
Details in all cases: ATP at Km, duplicate
MAP4K5 = target: T1, MAP4K5 (Homo sapiens, UniProt Q9Y4K4)
T1 construct: purchased Eurofins
Procedure: (§1) The column labeled “# < 10 PoC in enzyme panel” in Table 1 reports the number of kinases in this 17-member panel inhibited > 90% by each analog.
(§2) Details about the substrate used, protein constructs, controls, and assay protocol for these kinase assays are available at the Eurofins website: https://www.eurofinsdiscoveryservices.com. Reaction Biology Corp. (RBC) radiometric HotSpot kinase assays were carried out at the Km value for ATP in dose–response (10-pt curve) format for MYLK4, RIPK5, and YSK4 in Table S2. Details about the substrate used, protein constructs, controls, and assay protocol for these kinase assays are available at the RBC website: https://www.reactionbiology.com/list-kinase-targets-us-facility. SignalChem developed an ADP-Glo assay to test for enzymatic inhibition of PIKfyve in dose–response (10-pt curve) format in duplicate.

PAK4 = target: T2, PAK4 (Homo sapiens, UniProt O96013)
T2 construct: purchased Eurofins (radiometric) / Eurofins DiscoverX scanMAX / Reaction Biology / SignalChem
Procedure: as §1, §2

PAK6 = target: T3, PAK6 (Homo sapiens, UniProt Q9NQU5)
T3 construct: purchased Eurofins (radiometric) / Eurofins DiscoverX scanMAX / Reaction Biology / SignalChem
Procedure: as §1, §2

TAOK1 = target: T4, TAOK1 (Homo sapiens, UniProt Q7L7X3)
T4 construct: purchased Eurofins
T4 sequence (Q7L7X3 1-1001): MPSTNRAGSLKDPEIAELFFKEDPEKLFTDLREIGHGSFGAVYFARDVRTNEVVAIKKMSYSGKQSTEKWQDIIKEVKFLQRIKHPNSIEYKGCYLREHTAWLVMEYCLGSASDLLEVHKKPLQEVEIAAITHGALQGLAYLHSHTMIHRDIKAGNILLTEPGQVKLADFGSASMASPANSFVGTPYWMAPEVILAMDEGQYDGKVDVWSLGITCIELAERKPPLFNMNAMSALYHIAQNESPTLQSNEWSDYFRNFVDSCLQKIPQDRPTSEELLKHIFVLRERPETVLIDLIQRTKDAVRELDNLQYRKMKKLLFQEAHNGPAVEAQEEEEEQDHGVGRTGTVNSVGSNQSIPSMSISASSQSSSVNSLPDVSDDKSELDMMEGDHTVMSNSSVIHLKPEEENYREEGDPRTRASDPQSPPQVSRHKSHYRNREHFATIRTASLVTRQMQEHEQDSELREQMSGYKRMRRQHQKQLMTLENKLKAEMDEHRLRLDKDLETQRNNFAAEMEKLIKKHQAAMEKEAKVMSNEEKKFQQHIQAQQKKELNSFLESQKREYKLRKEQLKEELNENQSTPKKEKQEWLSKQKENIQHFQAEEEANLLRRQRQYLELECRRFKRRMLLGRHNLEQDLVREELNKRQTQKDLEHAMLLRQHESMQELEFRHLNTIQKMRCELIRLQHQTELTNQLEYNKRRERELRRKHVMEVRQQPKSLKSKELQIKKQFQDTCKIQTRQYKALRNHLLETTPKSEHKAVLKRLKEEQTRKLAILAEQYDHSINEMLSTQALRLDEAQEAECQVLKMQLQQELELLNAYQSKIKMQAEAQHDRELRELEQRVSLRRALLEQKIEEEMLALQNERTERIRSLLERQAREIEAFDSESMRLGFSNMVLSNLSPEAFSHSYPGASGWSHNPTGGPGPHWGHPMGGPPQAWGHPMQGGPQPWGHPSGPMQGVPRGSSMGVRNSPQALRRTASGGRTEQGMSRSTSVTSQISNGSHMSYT
Procedure: as §1, §2

TAOK2 = target: T5, TAOK2 (Homo sapiens, UniProt Q9UL54)
T5 construct: purchased Eurofins
T5 sequence (Q9UL54 1-1235): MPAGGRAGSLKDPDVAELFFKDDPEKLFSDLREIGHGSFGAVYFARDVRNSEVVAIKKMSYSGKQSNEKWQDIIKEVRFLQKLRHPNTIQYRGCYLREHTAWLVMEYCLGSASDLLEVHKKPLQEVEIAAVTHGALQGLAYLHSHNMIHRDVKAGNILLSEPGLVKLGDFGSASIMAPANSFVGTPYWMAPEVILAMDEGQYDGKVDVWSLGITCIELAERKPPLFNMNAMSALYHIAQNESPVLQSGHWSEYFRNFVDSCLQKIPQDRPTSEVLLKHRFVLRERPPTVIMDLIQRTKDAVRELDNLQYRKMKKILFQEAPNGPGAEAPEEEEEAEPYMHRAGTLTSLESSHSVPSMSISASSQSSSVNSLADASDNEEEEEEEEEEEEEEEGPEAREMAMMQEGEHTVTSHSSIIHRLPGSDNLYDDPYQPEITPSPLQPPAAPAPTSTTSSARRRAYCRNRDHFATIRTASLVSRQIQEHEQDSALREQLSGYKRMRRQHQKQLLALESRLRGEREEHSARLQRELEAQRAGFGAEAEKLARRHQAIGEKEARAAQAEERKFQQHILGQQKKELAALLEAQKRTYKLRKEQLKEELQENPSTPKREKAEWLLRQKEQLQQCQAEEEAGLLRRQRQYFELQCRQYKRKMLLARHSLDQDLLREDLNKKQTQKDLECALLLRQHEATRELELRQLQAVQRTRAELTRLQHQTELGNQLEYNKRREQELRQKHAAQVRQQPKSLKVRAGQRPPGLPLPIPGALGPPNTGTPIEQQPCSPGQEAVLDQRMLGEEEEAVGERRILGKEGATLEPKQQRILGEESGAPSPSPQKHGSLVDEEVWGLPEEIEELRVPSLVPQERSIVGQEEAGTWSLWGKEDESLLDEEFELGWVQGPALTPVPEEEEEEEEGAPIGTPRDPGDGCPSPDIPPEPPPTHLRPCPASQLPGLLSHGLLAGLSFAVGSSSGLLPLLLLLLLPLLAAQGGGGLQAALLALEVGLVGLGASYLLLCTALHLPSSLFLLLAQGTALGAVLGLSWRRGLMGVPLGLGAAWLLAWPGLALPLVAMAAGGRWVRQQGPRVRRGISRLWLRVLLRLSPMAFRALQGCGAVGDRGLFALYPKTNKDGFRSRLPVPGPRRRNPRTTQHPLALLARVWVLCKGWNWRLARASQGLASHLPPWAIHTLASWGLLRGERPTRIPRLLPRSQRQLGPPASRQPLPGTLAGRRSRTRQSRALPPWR
Procedure: as §1, §2

TSSK3 = target: T6, TSSK3 (Homo sapiens, UniProt Q96PN8)
T6 construct: purchased Eurofins
T6 sequence (Q96PN8 1-268): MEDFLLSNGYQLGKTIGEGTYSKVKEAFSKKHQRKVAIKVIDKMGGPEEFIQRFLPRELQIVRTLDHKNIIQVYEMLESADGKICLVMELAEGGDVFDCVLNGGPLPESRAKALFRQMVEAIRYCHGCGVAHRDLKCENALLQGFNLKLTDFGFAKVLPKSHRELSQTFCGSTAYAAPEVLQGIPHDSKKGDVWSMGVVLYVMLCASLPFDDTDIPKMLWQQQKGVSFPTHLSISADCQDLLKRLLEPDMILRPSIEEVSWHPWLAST
Procedure: as §1, §2

T3 sequence (Q9NQU5 whole entry): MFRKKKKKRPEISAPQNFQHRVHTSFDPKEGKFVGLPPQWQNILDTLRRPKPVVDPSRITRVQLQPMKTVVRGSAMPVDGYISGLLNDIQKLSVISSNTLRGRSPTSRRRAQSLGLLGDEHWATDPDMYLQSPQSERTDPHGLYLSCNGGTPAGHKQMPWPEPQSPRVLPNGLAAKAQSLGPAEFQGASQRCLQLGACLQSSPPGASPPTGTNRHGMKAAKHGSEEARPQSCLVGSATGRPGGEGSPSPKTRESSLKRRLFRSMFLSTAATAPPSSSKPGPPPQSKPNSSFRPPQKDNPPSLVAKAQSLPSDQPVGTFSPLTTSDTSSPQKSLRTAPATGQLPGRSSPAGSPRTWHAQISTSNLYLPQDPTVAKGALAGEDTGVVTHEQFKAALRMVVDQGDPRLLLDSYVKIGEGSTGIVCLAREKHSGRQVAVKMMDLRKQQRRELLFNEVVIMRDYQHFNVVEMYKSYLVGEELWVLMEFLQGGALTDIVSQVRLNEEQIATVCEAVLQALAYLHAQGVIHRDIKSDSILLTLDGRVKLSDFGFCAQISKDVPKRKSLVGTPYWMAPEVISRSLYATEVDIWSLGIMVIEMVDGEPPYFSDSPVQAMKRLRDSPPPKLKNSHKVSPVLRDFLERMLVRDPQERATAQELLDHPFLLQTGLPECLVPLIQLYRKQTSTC
T1 sequence (Q9Y4K4 whole entry): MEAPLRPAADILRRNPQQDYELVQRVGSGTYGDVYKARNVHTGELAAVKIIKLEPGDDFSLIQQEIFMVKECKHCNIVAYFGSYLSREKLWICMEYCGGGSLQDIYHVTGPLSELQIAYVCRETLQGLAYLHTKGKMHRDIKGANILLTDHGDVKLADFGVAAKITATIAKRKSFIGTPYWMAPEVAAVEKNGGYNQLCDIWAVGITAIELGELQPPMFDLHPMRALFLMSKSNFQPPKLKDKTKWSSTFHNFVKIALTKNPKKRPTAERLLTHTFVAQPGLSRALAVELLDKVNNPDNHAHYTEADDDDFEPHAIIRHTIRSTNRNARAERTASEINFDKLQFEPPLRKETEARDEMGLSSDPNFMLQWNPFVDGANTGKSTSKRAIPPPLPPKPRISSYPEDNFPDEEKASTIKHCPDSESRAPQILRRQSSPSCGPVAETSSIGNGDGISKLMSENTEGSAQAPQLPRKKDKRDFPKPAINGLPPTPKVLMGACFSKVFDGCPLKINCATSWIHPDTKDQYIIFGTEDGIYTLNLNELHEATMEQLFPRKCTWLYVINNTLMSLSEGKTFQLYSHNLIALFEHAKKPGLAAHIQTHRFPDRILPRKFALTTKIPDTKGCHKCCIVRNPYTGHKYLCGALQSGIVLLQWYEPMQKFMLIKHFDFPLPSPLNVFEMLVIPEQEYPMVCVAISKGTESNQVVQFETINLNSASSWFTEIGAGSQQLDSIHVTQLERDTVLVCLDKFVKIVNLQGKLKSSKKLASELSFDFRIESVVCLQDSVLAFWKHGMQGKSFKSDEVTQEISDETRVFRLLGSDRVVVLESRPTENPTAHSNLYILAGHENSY
T2 sequence (O96013 whole entry): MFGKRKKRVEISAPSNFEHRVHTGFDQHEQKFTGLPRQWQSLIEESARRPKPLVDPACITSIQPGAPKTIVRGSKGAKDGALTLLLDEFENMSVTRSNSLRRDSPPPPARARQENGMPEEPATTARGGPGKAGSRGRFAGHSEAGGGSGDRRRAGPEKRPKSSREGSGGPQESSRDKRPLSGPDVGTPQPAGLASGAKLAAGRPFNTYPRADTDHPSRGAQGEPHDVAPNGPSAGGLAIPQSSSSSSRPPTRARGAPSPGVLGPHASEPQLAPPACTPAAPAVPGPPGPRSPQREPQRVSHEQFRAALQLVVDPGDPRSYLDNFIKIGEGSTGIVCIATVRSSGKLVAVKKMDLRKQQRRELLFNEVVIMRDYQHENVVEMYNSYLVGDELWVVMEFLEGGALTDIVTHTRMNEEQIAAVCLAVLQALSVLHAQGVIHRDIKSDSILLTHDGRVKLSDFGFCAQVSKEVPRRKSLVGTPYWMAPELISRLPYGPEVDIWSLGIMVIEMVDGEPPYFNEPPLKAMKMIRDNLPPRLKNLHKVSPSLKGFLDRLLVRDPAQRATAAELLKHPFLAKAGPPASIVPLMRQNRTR

SMILES	MAP4K5 PoC at 1 μM (MAP4K5) [PoC]	PAK4 PoC at 1 μM (PAK4) [PoC]	PAK6 PoC at 1 μM (PAK6) [PoC]	TAOK1 PoC at 1 μM (TAOK1) [PoC]	TAOK2 PoC at 1 μM (TAOK2) [PoC]	TSSK3 PoC at 1 μM (TSSK3) [PoC]
CC(C)(O)C#Cc1ccc2[nH]c3c(c2c1)-c1nc(N)ncc1CCC3 [AMG28, reference compound]	1	8	6	2	26	1
CC(C)(O)C#Cc1ccc2[nH]c3c(c2c1)-c1nc(N)ncc1CC3 [Compound 1]	3	58	51	5	28	11
CC(C)(O)C#Cc1ccc2[nH]c3c(c2c1)-c1nc(N)ncc1CCCC3 [Compound 2]	9	67	77	65	83	120
CC(C)(O)C#Cc1ccc2[nH]cc(-c3ccnc(N)n3)c2c1 [Compound 3]	1	30	40	7	12	5
COC(C)(C)C#Cc1ccc2[nH]c3c(c2c1)-c1nc(N)ncc1CCC3 [Compound 11]	9	91	92	73	44	75
